Results taken from patent publication US8252768B2, “Designer therapy of pancreatic tumors” (University of Miami, priority 2006, dated 2012).

Tests used:
[1] = test system: PC-3 cells; test: Radiosensitization of cells in culture (Cobalt 60, clonogenic survival); type: cell-based, human; details: PC-3 cells
Protocol: (§1) Toxicity and Radiation Studies: The methods using clonogenic assays described by Perez and Greer (Int. J. Rad. Oncology: Biology, Physics 12, 1523-1527, 1986—incorporated herein by reference in its entirety) were followed.
Irradiation of Cells in Culture: 2×10^5 cells were plated in 25 cm^2 flasks and grown for 18 hr at 37° C. in a humidified 5% CO2 atmosphere. The medium was then removed and replaced with medium containing the appropriate drug concentrations and incubated for 72 hrs then removed and the cell monolayers were rinsed twice with PBS. The flasks were then filled with 50 ml of radiation medium (3 parts RPMI 1640 and 7 parts PBS plus antibiotics and glutamine). The cells were then irradiated using a Cobalt 60 irradiator. The cell monolayers were placed 35 cm away from the source and irradiated for appropriate times according to the dose rate. The dose rate was calculated, at this distance, using ionization chambers. Attenuation factors due to the polystyrene flask (0.9923) and the medium (H2O=0.8715) were considered in calculating the exposure period.
After irradiation the cell monolayers were washed again, replenished with growth media, and incubated for 1½ hours. The cell monolayers were then trypsinized and the cells serially diluted, appropriate dilutions were then plated in 60 mm dishes and incubated for 7-9 days at 37° C. and CO2. At the end of this period the cells were stained with crystal violet and the colony forming ability determined by considering 25 or more normal cells as a viable colony. The viabilities were determined and the appropriate survival curves derived. All conditions were done in duplicate using two flasks treated under identical conditions.

[2] = target: deoxycytidine kinase (dCK) (Homo sapiens, UniProt P27707); test: Competition assay for substrates of deoxycytidine kinase, crude extracts of PC-3 cells
Sequence of deoxycytidine kinase (dCK) (P27707 whole entry): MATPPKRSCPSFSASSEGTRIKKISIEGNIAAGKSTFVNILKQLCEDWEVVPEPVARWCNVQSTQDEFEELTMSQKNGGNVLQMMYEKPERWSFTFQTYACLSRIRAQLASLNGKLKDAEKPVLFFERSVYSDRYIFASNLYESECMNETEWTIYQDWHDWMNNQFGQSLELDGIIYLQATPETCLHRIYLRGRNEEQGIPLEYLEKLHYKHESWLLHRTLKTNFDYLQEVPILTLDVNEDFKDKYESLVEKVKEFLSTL

[3] = test system: mouse tumor; details: in vivo; cited from earlier work
[4] = test system: PC-3 cells; test: Cytotoxicity (clonogenic) assay, 72 h drug exposure; type: cell-based, human
Protocol: as §1
Cytotoxicity Assays: 5×10^5 cells were plated in 60 mm tissue culture dishes in 5 mls of the optimal growth media for the particular cell line in an humidified 95% air-5% CO2 atmosphere. The plates were incubated for 18-20 hours to allow for attachment and log-phase growth to begin. At the end of this period the growth medium was aspirated and replaced with […]. Four times (4×) concentrated solutions were prepared and then 1 ml was added to the plates; and growth media were then added to a total volume of […]. The plates were then incubated for 72 hours and the cells harvested by trypsinization. The cells were then serially diluted in growth medium replated into 60 mm dishes and incubated for 6 to 9 days depending on the cell line. After this incubation period, the media was aspirated and the colonies were washed twice with a PBS solution. The colonies were then stained with a 0.2% crystal violet-20% ethanol solution for 5 min. the stain was removed, the colonies were washed and air dried. A viable colony was one consisting of 25 or more normal appearing cells and was considered to have arisen from a single cell. The colonies were counted under a dissecting microscope. Two to three dilutions for every condition were plated. Dishes containing 30-300 colonies were used in the calculation and all conditions were done in duplicate.

[5] = target: T1, cytidine deaminase (CD) (Homo sapiens, UniProt P32320); test: Competition assay for substrates of cytidine deaminase, crude extracts of PC-3 cells; type: biochemical; details: competition studies, human tumor cell extracts
T1 construct: Crude extracts of PC-3 cells in culture were prepared as described above; endogenous in cells; host or cells: PC-3 cells (crude extract supernatant)
T1 sequence (P32320 whole entry): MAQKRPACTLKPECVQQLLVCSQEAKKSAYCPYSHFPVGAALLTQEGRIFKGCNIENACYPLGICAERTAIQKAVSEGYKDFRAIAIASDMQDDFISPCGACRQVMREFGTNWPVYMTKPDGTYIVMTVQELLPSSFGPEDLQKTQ
Protocol: The crude enzyme extract (the supernatant of a 10 minute 14,000×g centrifugation) was then added. When cytidine was used as substrate, assays were conducted with benzacyclouridine to inhibit uridine phosphorylases. […] After 0, 15, and 30 minutes, the reaction was stopped and denatured protein removed as above for dC Kinase. […] Aliquots were then spotted on PE cellulose TLC sheets and the reactants separated with a solvent system composed of isopropanol:HCl:H2O (170:41:39). […] The nucleosides were visualized under U.V. light and the spots cut out and counted. […] Enzyme activity was expressed as nmole formed in 30 min/mg/protein.
Competition assays to determine Substrate Specificity: Crude extracts of PC-3 cells in culture were prepared as described above. Two concentrations of crude extract were utilized for the studies as determined from the analysis of protein.
The assays were run for 0, 15, and 30 minutes.

[6] = test system: Lewis lung carcinoma; test: Mean day of death (T/C), Lewis lung carcinoma in mice; type: in vivo, BD2F1 mice
Protocol: ; The efficacy of the drug, F3methyldC followed the pattern of Selectivity. The mean day of death (Tumor/Control) was 1.3, 1.6, 1.8 and 1.4 for 10, 25, 50 and 75 mg/kg H4U, respectively. […].

Nc1nc(=O)n([C@H]2C[C@H](O)[C@@H](CO)O2)cc1C(F)(F)F [5-TrifluoromethyldC, 5-Trifluoromethyl-2′-deoxycytidine]
radiosensitization of PC-3 cells (in words) [1]: not a radiosensitizer | substrate for deoxycytidine kinase (in words) ([2]; competition studies, human tumor cell extracts): poor substrate | inhibition at 250 µM ([2]; read-out: % Inhibition (dCK)): 0% | efficacy vs a mouse tumor compared with other fluorinated pyrimidines (in words) [3]: superior to 5-FUra, 5-FdU and 5-F3dT | effect of thymidine on cytotoxicity (in words) [4]: antagonized by thymidine | effect of tetrahydrouridine (H4U) on cytotoxicity / viability (in words) ([4]; human, 72 h): can be antagonized by H4U | % S ([4]; nucleoside 1 μM, H4U 5 μM): 67% | % S ([4]; nucleoside 1 μM, H4U 100 μM): 100% | % S ([4]; nucleoside 1 μM, H4U 1500 μM): 100% | % S ([4]; nucleoside 10 μM, H4U 5 μM): 0.1% | % S ([4]; nucleoside 10 μM, H4U 100 μM): 2% | % S ([4]; nucleoside 10 μM, H4U 1500 μM): 3.3% | substrate for cytidine deaminase (in words) [5]: reasonably good substrate | MDD T/C (mean day of death) ([6]; H4U 10 mg/kg with F3methyldC): 1.3 | MDD T/C (mean day of death) ([6]; H4U 25 mg/kg with F3methyldC, mean ± SE): 1.6 | MDD T/C (mean day of death) ([6]; H4U 50 mg/kg with F3methyldC, mean ± SE): 1.8 | MDD T/C (mean day of death) ([6]; H4U 75 mg/kg with F3methyldC): 1.4
